Molecular target: Complement factor D (Homo sapiens, UniProt P00746)
Experiment: Human Factor D Assay: Human Factor D (purified from human serum, Complement Technology, Inc.) at 80 nM final concentration is incubated with test compound at various concentrations for 5 minutes at room temperature in 50 mM Tris, 1M NaCl, pH 7.5. A synthetic substrate Z-L-Lys-SBzl and DTNB (Ellman's reagent) are added to final concentrations of 100 μM each. Absorbance at 405 nm (A405) is recorded at 30 second intervals for 30 minutes using a microplate spectrophotometer. IC50 values are calculated by nonlinear regression of complement Factor D reaction rates as a function of test compound concentration.

Sequence of Complement factor D (P00746 whole entry): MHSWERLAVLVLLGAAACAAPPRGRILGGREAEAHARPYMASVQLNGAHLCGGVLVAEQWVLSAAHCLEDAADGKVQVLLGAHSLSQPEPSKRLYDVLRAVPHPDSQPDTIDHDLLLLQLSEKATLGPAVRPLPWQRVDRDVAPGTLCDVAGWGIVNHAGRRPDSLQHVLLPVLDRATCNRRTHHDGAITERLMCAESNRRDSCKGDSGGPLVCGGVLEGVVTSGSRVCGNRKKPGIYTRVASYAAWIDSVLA

CC(=O)c1nn(CC(=O)N2C[C@H](F)C[C@H]2C(=O)Nc2cccc(Br)n2)c2ccc(-c3cnc(S(C)(=O)=NC(=O)OC(C)(C)C)nc3)cc12 (stereo partly specified) was tested, and the IC50 was under 1 µM.
